Test results taken from patent US20240139167A1, “LYSOSOME-ASSOCIATED MEMBRANE PROTEIN TARGETING COMPOUNDS AND USES THEREOF” (HADASIT MEDICAL RESEARCH SERVICES AND DEVELOPMENT LTD., priority 2021, published 2024).

Columns and labels:
[1] = test system: primary human non-small-cell lung cancer (NSCLC) cells; assay: LC3, p62 and PAS staining of lung cancer cells; type: cell-based
Protocol: FIGS. 20A-20B include fluorescent micrographs showing primary non-small cell-lung cancer. Cells were treated and stained for the autophagic substrates LC3 (20A) and p62 (20B) as in 19A-19B.
NAD+ and NADH are key precursors for the electron transfer chain, TCA cycle, glycolysis, amino acid synthesis, fatty acid synthesis, and nucleotide synthesis. The NAD+/NADH ratio reports the extent of overall catabolism and the balance between glycolysis and OxPhos. The increase in the NAD+/NADH ratio means acceleration of electron flow in the mitochondrial electron transport chain (note, not mitochondrial ATP production) and of glycolysis to better manage metabolic demands. Furthermore, Sirt1 induction, often associated with increased NAD+/NADH ratio, is a well-documented and innovative anti-aging, calorie restriction-mimic and anti-cancer therapeutic strategy (see for example Hyun et al., (2020)). Thus, the results in Gsd1a cells (FIG. 21), showing induction of the NAD+/NADH ratio, as well as Sirt1, indicate that 144DG11 is a promising therapy for a plethora of different metabolic disorders, aging-related complications, and cancer.

[2] = biological target: T1, deglycosylated luminal LAMP1 domain (Homo sapiens, UniProt P11279); assay: SPR with chemically deglycosylated LAMP1; type: binding
T1 construct: repeated the SPR experiments with a chemically deglycosylated luminal LAMP1 domain
T1 sequence (P11279 29-382): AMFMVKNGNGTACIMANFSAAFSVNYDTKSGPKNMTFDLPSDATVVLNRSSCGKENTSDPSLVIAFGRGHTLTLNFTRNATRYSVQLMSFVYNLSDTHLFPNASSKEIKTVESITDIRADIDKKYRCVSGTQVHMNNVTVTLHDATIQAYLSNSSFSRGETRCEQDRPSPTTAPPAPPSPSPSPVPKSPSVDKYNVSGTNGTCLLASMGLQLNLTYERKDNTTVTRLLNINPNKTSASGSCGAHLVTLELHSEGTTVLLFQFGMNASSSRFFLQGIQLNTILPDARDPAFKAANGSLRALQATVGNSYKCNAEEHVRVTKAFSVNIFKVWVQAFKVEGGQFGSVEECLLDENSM
Protocol: The inventors have investigated the mechanism of action of 144DG11. To that end, the inventors first decided to determine its molecular target. Nematic protein organization technique (NPOT, Inoviem, Ltd.) was applied to homogenates of APBD patient fibroblasts. The NPOT analysis has discovered protein hetero assemblies uniquely generated around 144DG11 only when it was added to the cell homogenates (FIG. 5A). The next step in this analysis has identified the interactome of protein targets interacting with 144DG11 in APBD patients' fibroblasts. […] Moreover, the inventors have tested by cellular thermal shift assay the specific interaction of 144DG11 with 6 of the 8 targets discovered by NPOT. […] This finding relates to a novel pathogenic hypothesis connecting cellular glycogen overload with glycogen trafficking to lysosomes via Starch Binding Domain containing Protein 1. To validate 144DG11's interaction with LAMP1, the inventors have used surface plasmon resonance (SPR) technology. […] The inventors hypothesized that this slow rate of association could be explained by inhibited diffusion of 144DG11 due to the bulky oligosaccharides at the glycosylation sites. […] In the search for a putative binding site for Compound 1 in LAMP1, the inventors have analyzed the N- and C-terminal subdomains of its luminal domain (residues A29-R195 and S217-D378, respectively), which have a similar topology. […]

Agl^−/− mice = assay: Blood metabolic panel in Agl^-/- mice (GSD3); type: in vivo; conditions: 6-months mice treated for 3 months
Text: FIG. 18 includes a vertical bar graph showing blood metabolic panel based on n=5-6 6-months wildtype or Agl^−/− mice treated as indicated for 3 months.

Gbe^ys/ys mice = assay: Blood metabolic panel in Gbe^ys/ys mice; type: in vivo
Protocol: FIGS. 3A-3I include a graph of the effect of Compound 1 on in vivo metabolism; mice were monitored by the Promethion High-Definition Behavioral Phenotyping System (Sable Instruments, Inc.) over a 24 hr period. Effective mass was calculated by power of 0.75. Data are mean±SEM from n=11 9 months old mice in the wt. control vehicle arm, n=6 9 months old mice in the GBE^ys/ys vehicle arm and n=7 9 months old mice in the Gbe^ys/ys 144DG11 (Compound 1)-treated arm. All injections were from the age of 4 months. […] Blood metabolic panel based on n=5, 9.5 months old mice treated as indicated (3I). Blood glucose was increased, and blood triglycerides decreased in Gbe^ys/ys […] by Compound 1 (p<0.05, Student's t-tests). *p<0.05 v wt. controls, #p<0.05 v GBE^ys/ys vehicle treated mice;
The inventors further tested whether Compound 1 is able to correct the hypoglycemia and hyperlipidemia observed in Gbe^ys/ys mice. Such an effect is expected from an agent capable of inducing the catabolism of liver glycogen with an ensuing rise in blood glucose. […] Muscle (creatine kinase) and liver (alanine transferase) functions were not affected by this treatment (FIG. 3I).

`COCCN(Cc1sccc1C)C(=O)c1cc(C)nc(O)c1` [Compound 1] was tested, and the “autophagy (LC3, p62)” value [1] was “induced autophagy”, the glycogen levels [1] was “did not lower glycogen levels” and the “binding to deglycosylated LAMP1” value [2] was “did not bind”. For the same compound, the blood triglycerides (Agl^−/− mice) was “decreased”, the hypoglycemia and hyperlipidemia (Gbe^ys/ys mice; 9.5 months old mice) was “corrected to control levels” and the “muscle (creatine kinase) and liver (alanine transferase) functions” value (Gbe^ys/ys mice; 9.5 months old mice) was “not affected”. The blood glucose (Gbe^ys/ys mice; 9.5 months old, p<0.05) was “increased” and the blood triglycerides (Gbe^ys/ys mice; 9.5 months old, p<0.05) was “decreased”.
